# According to patent US20150274719A1, “AMINO-SUBSTITUTED IMIDAZO[1,2-A]PYRIDINECARBOXAMIDES AND THEIR USE” (BAYER PHARMA AKTIENGESELLSCHAFT, priority 2012, published 2015):
# Biological target: T1, recombinant guanylate cyclase reporter cell line (Rattus norvegicus, UniProt P19686+P20595)
# T1 construct: expressed in transfected cells; host or cells: recombinant reporter cell line
# T1 sequence (P19686 1-690): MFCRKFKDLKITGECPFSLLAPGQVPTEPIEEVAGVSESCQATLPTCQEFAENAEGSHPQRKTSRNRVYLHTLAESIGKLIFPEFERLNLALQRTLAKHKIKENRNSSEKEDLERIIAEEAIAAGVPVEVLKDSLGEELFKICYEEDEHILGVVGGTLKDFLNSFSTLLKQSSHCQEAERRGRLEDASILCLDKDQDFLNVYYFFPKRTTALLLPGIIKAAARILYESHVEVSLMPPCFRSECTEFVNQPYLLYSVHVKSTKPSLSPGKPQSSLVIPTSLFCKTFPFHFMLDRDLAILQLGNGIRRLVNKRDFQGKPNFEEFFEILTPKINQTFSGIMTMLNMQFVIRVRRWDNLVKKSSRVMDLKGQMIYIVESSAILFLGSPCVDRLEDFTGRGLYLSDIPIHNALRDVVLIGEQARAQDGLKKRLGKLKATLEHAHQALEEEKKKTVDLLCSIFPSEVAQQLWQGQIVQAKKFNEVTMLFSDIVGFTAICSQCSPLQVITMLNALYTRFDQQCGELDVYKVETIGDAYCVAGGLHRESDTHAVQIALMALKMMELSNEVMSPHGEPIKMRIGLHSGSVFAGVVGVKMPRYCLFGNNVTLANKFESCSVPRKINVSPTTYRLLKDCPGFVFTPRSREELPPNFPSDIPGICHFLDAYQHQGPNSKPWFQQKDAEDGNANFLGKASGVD
# T1 sequence (P20595 1-619): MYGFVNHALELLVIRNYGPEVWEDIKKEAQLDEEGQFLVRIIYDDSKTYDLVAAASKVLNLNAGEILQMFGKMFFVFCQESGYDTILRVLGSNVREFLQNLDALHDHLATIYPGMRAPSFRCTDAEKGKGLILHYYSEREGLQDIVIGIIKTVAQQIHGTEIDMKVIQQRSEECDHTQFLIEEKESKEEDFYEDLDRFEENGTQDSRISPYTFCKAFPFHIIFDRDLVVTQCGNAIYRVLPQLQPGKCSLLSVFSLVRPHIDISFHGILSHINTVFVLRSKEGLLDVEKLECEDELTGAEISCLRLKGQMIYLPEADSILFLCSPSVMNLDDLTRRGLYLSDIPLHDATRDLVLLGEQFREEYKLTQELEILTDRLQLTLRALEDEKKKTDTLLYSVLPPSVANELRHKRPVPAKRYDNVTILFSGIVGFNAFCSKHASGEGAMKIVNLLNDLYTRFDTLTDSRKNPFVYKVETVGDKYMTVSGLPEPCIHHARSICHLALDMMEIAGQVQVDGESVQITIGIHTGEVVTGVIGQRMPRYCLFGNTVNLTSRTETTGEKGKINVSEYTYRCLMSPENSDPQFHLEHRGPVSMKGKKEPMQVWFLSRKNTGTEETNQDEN
# Assay: Action on recombinant guanylate cyclase reporter cell line
# Type: cell-based
# Conditions: in some cases mean values from individual determinations
# How it was run: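 Reported value is the minimal effective concentration (MEC), in some cases a mean of single runs, taken from a recombinant rat guanylate cyclase reporter cell line.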
row,SMILES,MEC (minimal effective concentration)
1,"Cc1cc(OCc2c(F)cccc2F)c2nc(C)c(C(=O)NCC(C)(N)COCc3ccccc3)n2c1 (racemic) [Example 265, rac-N-[2-amino-3-(benzyloxy)-2-methylpropyl]-8-[(2,6-difluorobenzyl)oxy]-2,6-dimethylimidazo[1,2-a]pyridine-3-carboxamide]",0.30 µM
2,"Cc1cc(OCc2c(F)cccc2F)c2nc(C)c(C(=O)NCC(C)N3CCOCC3)n2c1 (racemic) [Example 138, rac-8-[(2,6-difluorobenzyl)oxy]-2,6-dimethyl-N-[2-(morpholin-4-yl)propyl]imidazo[1,2-a]-pyridine-3-carboxamide]",0.30 µM
3,"Cc1nc2c(OCc3c(F)cccc3F)cccn2c1C(=O)NC(C)[C@H](C)N (stereo partly drawn) [Example 120, N-[(3S)-3-Aminobutan-2-yl]-8-[(2,6-difluorobenzyl)oxy]-2-methylimidazo[1,2-a]pyridine-3-carboxamide]",0.30 µM
4,"Cc1nc2c(OCc3c(F)cccc3F)cccn2c1C(=O)NC1CNc2ccccc21 (racemic) [Example 28, rac-8-[(2,6-difluorobenzyl)oxy]-N-(2,3-dihydro-1H-indol-3-yl)-2-methylimidazo[1,2-a]pyridine-3-carboxamide]",0.30 µM
5,"CCCC(C)(N)CNC(=O)c1c(C)nc2c(OCc3c(F)cccc3F)cc(OC)cn12 (single isomer, unassigned; enantiomer b) [Example 278, ent-N-(2-amino-2-methylpentyl)-8-[(2,6-difluorobenzyl)oxy]-6-methoxy-2-methylimidazo[1,2-a]pyridine-3-carboxamide (Enantiomer B)]",0.3 µM
6,"CCCC(C)(N)CNC(=O)c1c(C)nc2c(OCc3cccc(C)c3F)cc(C)cn12 (racemic) [Example 317, rac-N-(2-amino-2-methylpentyl)-8-[(2-fluoro-3-methylbenzyl)oxy]-2,6-dimethylimidazo[1,2-a]pyridine-3-carboxamide]",0.30 µM
7,"CSCCC(CN)NC(=O)c1c(C)nc2c(OCc3c(F)cccc3F)cc(C)cn12 (racemic) [Example 391, rac-N-[1-amino-4-(methylsulfanyl)butan-2-yl]-8-[(2,6-difluorobenzyl)oxy]-2,6-dimethylimidazo[1,2-a]pyridine-3-carboxamide]",0.10 µM
8,"COCC(C)(N)CNC(=O)c1c(C)nc2c(OCc3c(F)cccc3F)cc(C)cn12 (single isomer, unassigned) [Example 199, ent-N-(2-Amino-3-methoxy-2-methylpropyl)-8-[(2,6-difluorobenzyl)oxy]-2,6-dimethylimidazo-[1,2-a]pyridine-3-carboxamide]",0.30 µM
9,"CCC(C)(CN)NC(=O)c1c(C)nc2c(OCc3c(F)ccc(F)c3F)cc(C)cn12 (stereo not drawn) [Example 315, ent-N-(1-amino-2-methylbutan-2-yl)-2,6-dimethyl-8-[(2,3,6-trifluorobenzyl)oxy]imidazo[1,2-a]pyridine-3-carboxamide]",0.30 µM
10,"Cc1cc(OCc2c(F)cccc2F)c2nc(C)c(C(=O)NCC(N)c3cccc(OC(F)F)c3)n2c1 (racemic) [Example 375, rac-N-{2-amino-2-[3-(difluoromethoxy)phenyl]ethyl}-8-[(2,6-difluorobenzyl)oxy]-2,6-dimethylimidazo[1,2-a]pyridine-3-carboxamide]",3.00 µM
11,"Cc1cc(OCc2c(F)cccc2F)c2nc(C)c(C(=O)NCC(C)(N)CCOCc3ccccc3)n2c1 (racemic) [Example 262, rac-N-[2-Amino-4-(benzyloxy)-2-methylbutyl]-8-[(2,6-difluorobenzyl)oxy]-2,6-dimethylimidazo-[1,2-a]pyridine-3-carboxamide]",0.10 µM
12,"Cc1nc2c(OCc3c(F)cccc3F)cc(Cl)cn2c1C(=O)NCCN [Example 36, N-(2-aminoethyl)-6-chloro-8-[(2,6-difluorobenzyl)oxy]-2-methylimidazo[1,2-a]-pyridine-3-carboxamide]",1.00 µM
13,"CCCC[C@H](CN(CC)CC)NC(=O)c1c(C)nc2c(OCc3c(F)cccc3F)cccn12 [Example 69, ent-8-[(2R)-1-(diethylamino)hexan-2-yl]-8-[(2,6-difluorobenzyl)oxy]-2-methylimidazo[1,2-a]-pyridine-3-carboxamide]",1.00 µM
14,"Cc1nc2c(OCc3c(F)cccc3F)cccn2c1C(=O)NC1CCNc2ccc(F)cc21 (single isomer, unassigned; ent-8) [Example 105, ent-8-[(2,6-difluorobenzyl)oxy]-N-(6-fluoro-1,2,3,4-tetrahydroquinolin-4-yl)-2-methylimidazo[1,2-a]pyridine-3-carboxamide]",0.30 µM
15,"CC[C@](C)(N)CNC(=O)c1c(C)nc2c(OCc3c(F)cccc3F)cc(C)cn12 (single isomer, unassigned) [Example 200]",0.04 µM
16,"CCN1C2CCCC1CC(NC(=O)c1c(C)nc3c(OCc4c(F)cccc4F)cccn13)C2 (stereo not shown) [Example 71, 8-[(2,6-Difluorobenzyl)oxy]-N-(9-ethyl-9-azabicyclo[3.3.1]non-3-yl)-2-methylimidazo[1,2-a]-pyridine-3-carboxamide]",0.30 µM
17,"Cc1cc(OCc2c(F)cccc2F)c2nc(C)c(C(=O)NC3(C)CCC3(C)N)n2c1 (single isomer, unassigned; enantiomer b) [Example 337, ent-N-[(2-amino-1,2-dimethylcyclobutyl]-8-[(2,6-difluorobenzyl)oxy]-2,6-dimethylimidazo[1,2-a]pyridine-3-carboxamide (Enantiomer B)]",0.55 µM
18,"Cc1nc2c(OCc3c(F)cccc3F)cccn2c1C(=O)NCC1(N)CCCC1 [Example 41, N-[(1-aminocyclopentyl)methyl]-8-[(2,6-difluorobenzyl)oxy]-2-methylimidazo[1,2-a]-pyridine-3-carboxamide]",0.30 µM
19,"Cc1nc2c(OCc3c(F)cccc3F)cc(Cl)cn2c1C(=O)NC(C)CN (stereo not drawn) [Example 22, ent-N-(1-aminopropan-2-yl)-6-chloro-8-[(2,6-difluorobenzyl)oxy]-2-methylimidazo[1,2-a]-pyridine-3-carboxamide]",0.30 µM
20,"Cc1cc(OCc2c(F)cccc2F)c2nc(C)c(C(=O)NCC(C)(N)CC(C)C)n2c1 (racemic) [Example 218, rac-N-(2-Amino-2,4-dimethylpentyl)-8-[(2,6-difluorobenzyl)oxy]-2,6-dimethylimidazo[1,2-a]-pyridine-3-carboxamide]",0.10 µM
21,"Cc1nc2c(OCc3c(F)cccc3F)cccn2c1C(=O)NCC(N)C(C)C (single isomer, unassigned) [Example 228, ent-N-(2-Amino-3-methylbutyl)-8-[(2,6-difluorobenzyl)oxy]-2-methylimidazo[1,2-a]pyridine-3-carboxamide]",1.00 µM
22,"Cc1cc(OCc2c(F)cccc2F)c2nc(C)c(C(=O)NC(CN)c3ccc4ncccc4c3)n2c1 (racemic) [Example 395, rac-N-[2-amino-1-(quinolin-6-yl)ethyl]-8-[(2,6-difluorobenzyl)oxy]-2,6-dimethylimidazo[1,2-a]pyridine-3-carboxamide]",1.00 µM
23,"Cc1cc(OCc2c(F)cccc2F)c2nc(C)c(C(=O)NC3CCC3(C)N)n2c1 (single isomer, unassigned; enantiomer b) [Example 333, ent-N-[2-amino-2-methylcyclobutyl]-8-[(2,6-difluorobenzyl)oxy]-2,6-dimethylimidazo[1,2-a]pyridine-3-carboxamide (Enantiomer B)]",1.00 µM
24,"CCC(N)(CC)CNC(=O)c1c(C)nc2c(OCc3c(F)cccc3F)cccn12 [Example 253, N-(2-Amino-2-ethylbutyl)-8-[(2,6-difluorobenzyl)oxy]-2-methylimidazo[1,2-a]pyridine-3-carboxamide]",0.10 µM
25,"Cc1nc2c(OCc3c(F)cccc3F)cccn2c1C(=O)NC(C)[C@@H](C)N (single isomer, unassigned) [Example 176]",1.00 µM
